# Patent US20080015147A1, “Method for inhibiting neuronal cell death” (priority 2006, published 2008)
# Legend:
# Type in all cases: cell-based, mouse
# catalase = assay: Catalase gene expression by real-time PCR; conditions: p<0.001
# N38 cells [1] = assay: Bromodeoxyuridine (BrdU) incorporation assay; conditions: 24 or 48 hrs; pH extremes
# Excerpt: The evaluation of cell cycle progression is important when assessing the viability of a cell population. The cell cycle is a sequence of stages that a cell passes through between one division and the next. The cell cycle oscillates between mitosis and the interphase, which is divided into G, S, and G 2. In the G phase there is a high rate of biosynthesis and growth; in the S phase there is the doubling of the DNA content as a consequence of chromosome replication; in the G 2 phase the final preparations for cell division (cytokinesis) are made (Raza, 1985). In order to determine whether TCAP was increasing cell cycle efficiency, a bromodeoxyuridine (BrdU) non-isotopic enzyme immunoassay was conducted (Calbiochem, Canada). BrdU incorporation into newly synthesized DNA of actively proliferating cells enables one to quantify cell cycle progression and the population of cells entering the S phase(Gratzner, 1982; Raza, 1985).
# N38 cells were grown in a 96-well culture plate using 100 μl at an initial density of 2×10^5 cells/ml. Controls consisted of a blank, one well containing only DMEM with no cells and background, and one well with cells but with no BrdU label added. […] Absorbance was measured on a SPECTRAmax Microplate spectrophotometer at dual wavelengths at 450-540 nm.
# N38 cells [2] = assay: Cell proliferation by direct hemocytometer counts; conditions: for total cell numbers relative to vehicle: 48 hrs, 2×10^−7 M
# Method: At 24 and 48 hrs, the medium was replaced with medium buffered at pH 6.8, 7.4, 8.0 or 8.4. Half of the cell groups received (2×10^−7 M) TCAP-1, whereas the other half received phosphate buffered saline (PBS) pH 7.4 containing 8 g NaCl, 0.2 g KCl, 1.4 g Na2HPO4, 0.2 g KH2PO4 in. 800 mL ddH2O. For all groups, 4 replicates were run. Digital pictures were taken at 24, 48 and 72 hrs using an Olympus IX&1 inverted microscope at a magnification of 200× and analyzed using LabWorks 4.0 Image Acquisition and Analysis software (UltraViolet Products Ltd).
# The effect of TCAP-1 on cell proliferation at each pH was examined by direct counts using a hemocytometer and indirectly by assessing mitochondrial activity using a colorimetric MTT (3-[4,5-dimethylthiazol-2-yl]-2,5-diphenyl tetrazolium bromide) assay on cultured N38 cells. For hemocytometer counts, the cultures were incubated for 24 and 48 hrs. The cells were suspended using 1 ml of 0.25% Trypsin with EDTA (Gibco-Invitrogen, Burlington, Canada), centrifuged at 1600 RPM for 4 min, and resuspended with PBS. The cells in 50 μl aliquots were vortexed and counted on a hemocytometer.
# N38 cells [3] = assay: Cell viability by Trypan Blue uptake; conditions: 48 hrs
# Method: The proportion of viable cells in the samples was determined by measuring Trypan Blue uptake. At 48 hrs, the cells from the four pH treatments were suspended using 1 ml of Trypsin EDTA, centrifuged at 1600 RPM for 4 min and resuspended in 1 ml of BSS (Hank's Balanced Salt Solution) (Sigma, St. Louis). An aliquot of 0.5 ml of 0.04% Trypan Blue solution was transferred to a 1.5 ml tube, […] of BSS was added to 0.2 ml of the cell suspension; the samples were mixed thoroughly and the cell suspension-Trypan Blue mixture was allowed to stand for 10 minutes and then counted on a hemocytometer. Separate counts were kept for both viable and non viable cells.
# [4] = tested on: superoxide copper chaperone (CCSD); assay: Superoxide copper chaperone (CCSD) expression by real-time PCR; conditions: pH 8.4
substance,measurement,setting,value
teneurin C-terminus associated peptide [TCAP-1],catalase mRNA induction,catalase; pH 8.0,3 fold
same,catalase mRNA induction,catalase; pH 8.4,5 fold
same,BrdU incorporation,N38 cells [1],no significant results
same,total number of cells vs vehicle,"N38 cells [2]; 24 hrs, any pH condition",no significant differences in the total number of cells
same,total cell numbers relative to vehicle,N38 cells [2]; pH 6.8,increased the number of cells
same,total cell numbers relative to vehicle,"N38 cells [2]; pH 6.8, listed as TCAP",inhibited the decrease in total cell numbers
same,total cell numbers relative to vehicle,N38 cells [2]; pH 8.0,increased the number of cells
same,total cell numbers relative to vehicle,"N38 cells [2]; pH 8.0, listed as TCAP",inhibited the decrease in total cell numbers
same,total cell numbers relative to vehicle,N38 cells [2]; pH 8.4,increased the number of cells
same,total cell numbers relative to vehicle,"N38 cells [2]; pH 8.4, listed as TCAP",inhibited the decrease in total cell numbers
same,cell viability by trypan blue uptake,N38 cells [3]; pH 6.8,significant decrease in the number of cells that took up the trypan blue stain
same,cell viability by trypan blue uptake,"N38 cells [3]; pH 6.8, listed as TCAP",increased the number of viable cells
same,cell viability by trypan blue uptake,N38 cells [3]; pH 8.0,significant decrease in the number of cells that took up the trypan blue stain
same,cell viability by trypan blue uptake,"N38 cells [3]; pH 8.0, listed as TCAP",increased the number of viable cells
same,cell viability by trypan blue uptake,N38 cells [3]; pH 8.4,significant decrease in the number of cells that took up the trypan blue stain
same,cell viability by trypan blue uptake,"N38 cells [3]; pH 8.4, listed as TCAP",increased the number of viable cells
same,CCSD expression increase over vehicle treated cells,[4],~4.5 fold
